Assay results taken from US20110124703A1, “MOLECULES COMPRISING A BIS(HETEROARYL)MALEIMIDE BACKBONE, AND USE THEREOF IN THE INHIBITION OF DDE/DDD ENZYMES” (priority 2008, published 2011).
Read-outs that look alike come from different tables or passages of the source.

Columns and labels:
[1] = biological target: T1, MOS1 transposase (MBP-MOS1) (Drosophila mauritiana, UniProt Q7JQ07); assay: In vitro transposition test; format: biochemical; settings: 80 μM compound; for Transposition frequencies: mean of at least five experiments; for Inhibition factors: ratio of transposition frequency with DMSO to that with compound
T1 construct: made in house
T1 sequence (Q7JQ07 whole entry): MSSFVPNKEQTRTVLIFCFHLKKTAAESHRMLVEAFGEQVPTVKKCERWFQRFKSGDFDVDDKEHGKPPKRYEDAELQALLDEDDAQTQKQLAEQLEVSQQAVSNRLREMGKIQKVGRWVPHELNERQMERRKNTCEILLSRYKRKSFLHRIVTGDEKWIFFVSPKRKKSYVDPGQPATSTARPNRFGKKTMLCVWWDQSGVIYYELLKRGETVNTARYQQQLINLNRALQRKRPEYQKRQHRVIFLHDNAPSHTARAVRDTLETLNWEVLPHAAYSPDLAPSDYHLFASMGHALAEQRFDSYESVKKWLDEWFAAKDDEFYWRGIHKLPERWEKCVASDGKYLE
Method: The in vitro transposition reactions were carried out using pBC-3T3 both as the donor DNA and as the target, as was carried out previously for transposition tests in bacteria (16). The transposition reaction mixtures contained 10 mM of Tris-HCl (pH 9), 50 mM of NaCl, 0.5 mM of dithiothreitol, 20 mM of MgCl2, 0.5 mM of EDTA, 100 ng of BSA, 80 nM of MBP-MOS1 and 600 ng of supercoiled pBC-3T3 in a volume of 20 μl. Inhibitors (final concentration 80 μM) or DMSO were added to the reaction mixtures before the transposase. The reactions were carried out freely for 30 min at 30° C. then 10 μl of the stop solution (0.4% SDS, 0.4 μg/μl proteinase K) were added and the reaction mixtures were incubated at 37° C. for an additional 30 min, then at 65° C. for 10 min. The products were extracted with phenol-chloroform and precipitated in ethanol with 1 μg of yeast tRNA using conventional techniques. 10% of the reaction mixture was co-transformed with 0.01 ng of pBS-SK(−), used as a positive control for transformation (Stratagene), in 45 μl of electrocompetent Escherichia coli JM109 cells (2 mm cell, 1.5 kV in a MicroPulser™ from BioRad). The bacteria were cultivated at 37° C. for 1 hour in SOC medium. Appropriate dilutions of each reaction were spread on LB-ampicillin gelose (100 μg/ml) to evaluate the transformation efficacy and on LB-tetracyclin gelose (12.5 μg/ml) and LB-chloramphenicol gelose (80 μg/ml) in order to evaluate the frequency of transposition. The frequency of transposition is the number of Tet® colonies divided by the number of Chloram® colonies. The transformation efficacy was monitored from the number of Amp® colonies. The effect of the various compounds was expressed by calculating an inhibition factor (IF) such that IF=the frequency of transposition of the control (in DMSO) divided by the frequency of transposition obtained with the compound.
The transposition test was carried out using a purified MOS1 protein fused with the MBP and the pBC-3T3 plasmid carrying a pseudo-Mos1 transposon. In this test, pBC-3T3 was used as the pseudo-Mos1 donor, or as the target for integration of the transposon (16). […] The concentration of drugs used for the initial screening was 80 μM.

MOS1-ITR complexes = biological target: T2, MOS1-ITR complexes (Drosophila mauritiana, UniProt Q7JQ07); assay: Electrophoretic mobility shift test (EMSA), assembly of MOS1-ITR complexes; format: binding; parameters: key to Assembly of complexes: +: complexes observed; −: absence of complexes; +/: traces of SEC1; settings: for IC50: MOS1-ITR bond
T2 construct: made in house
T2 sequence (Q7JQ07 whole entry, one chain of several): as the sequence (Q7JQ07 whole entry) above
Method: The ITR30 was prepared and labeled as described above (8) with certain minor modifications: after labelling, the DNA was purified further on a native polyacrylamide gel. The binding reactions were carried out in 50 mM of NaCl, 0.5 mM of DTT, 10 mM of Tris (pH 9), 5% of glycerol and 100 ng of BSA. Each 20 μl reaction contained 0.2 pmol of ITR30 labelled with ^32P, […] of purified MBP-MOS1, 5 mM of EDTA, and 1 μl of the test compound (final concentration 400 μM) or DMSO. The mixtures were incubated at 30° C. for two hours. The complexes were separated using discontinuous native polyacrylamide gels with 4% to 6% of TBE 0.25× (acrylamide/bisacrylamide 30:0.93) containing 5% of glycerol. The gels were subjected to 200 V for 3 hours then autoradiographed.
The capacity of the ten molecules to inhibit the appearance of complexes formed in vitro between MOS1 and ITR 3′ (8) was tested using the gel mobility shift technique (EMSA). MOS1-ITR complexes were formed with a radiolabelled ITR 3′ (ITR30) in the presence of a 400 μM concentration of molecule. This concentration was at least 2.5 times higher than the highest IC50 value measured for the ten compounds.

[2] = biological target: T1, MOS1 transposase (MBP-MOS1); assay: In vitro excision test; format: biochemical
Method: These tests were carried out under the same conditions as for the in vitro transposition tests, with the exception of the fact that the incubation was carried out at 37° C. instead of 30° C. In order to determine the IC50, a range of concentrations of the compound from 1000 to 0.8 μM was used as indicated in the text. After incubation, the reaction was interrupted by adding 2 μl of 10× loading buffer and the products were loaded directly onto a 0.8% TAE 1×-agarose gel containing ethidium bromide. The quantity of backbone liberated was evaluated using the GeneSnap system (SynGene). The percentage inhibition of excision was plotted as a function of the concentration of the compound. The experimental data were adjusted on a sigmoid dose-response curve using Prism software. Each experiment was repeated at least two times.
For a better characterization of the inhibiting activity of these ten compounds and their action mechanisms on the transposition of Mos1, the capacity of the chemical compounds to inhibit excision of the transposon was tested in vitro, using the pBC-3T3 transposon as a donor plasmid. MOS1 triggers excision of the transposon from a donor plasmid, generating two linear DNA fragments, the transposon (1.2 kb) and the plasmid backbone (3.4 kb). After excision, the transposon can be re-inserted in a target. The excision activity of the drug was measured by quantifying the plasmid backbone as it is a final product in the reaction. In the absence of a drug, the transposase released the transposon from the donor plasmid.
In order to determine the concentration of drug necessary to inhibit 50% of the reaction (IC50), the inhibition percentages measured from two independent experiments were plotted as a function of the concentration of drug (FIG. 3b). Similar experiments were carried out with the nine other chemical compounds and the corresponding IC50 values are shown in Table III.

HIV-1 integrase = biological target: T3, HIV-1 integrase (Human immunodeficiency virus type 1 group M subtype B, UniProt P04585); assay: 3′ maturation and HIV-1 strand transfer tests; format: biochemical
T3 construct: made in house
Method: HIV-1 integrase was purified as described in (32). 200 nM of HIV-1 integrase was incubated in the presence of 6.25 nM of radiolabelled oligonucleotide duplex imitating the end of the LTR U5 in a buffer containing 20 mM of HEPES (pH 7.5), 10 mM of NaCl, 4 mM of DTT, 7.5 mM of MgCl2, 10% of DMSO and various concentrations of drugs. The reaction was carried out for 2 hours at 37° C. and the products were separated on an 18% acrylamide urea gel. The gel was scanned using a phosphorimager and analyzed using Image Quant (Molecular Dynamics) software. Each experiment was carried out in duplicate.
To verify whether the novel group of inhibitors (compounds 1 to 4) is also susceptible of blocking HIV-1 integrase, the activity of compound 4 was tested against the 3′ maturation and strand transfer activities of HIV-1 integrase. The percentage inhibition measured in the two independent experiments were traced as a function of the concentration of compound 4 (FIG. 10). […] It was also an excellent inhibitor of HIV-1 integrase. […] In consequence, MOS1 can be considered as a novel substitute for the identification of inhibitors of HIV-1 integrase.

Compound	Transposition frequencies [1]	Inhibition factors [1]	Assembly of complexes (MOS1-ITR complexes; 400 μM compound)	MOS1-ITR complexes in the presence of compound (MOS1-ITR complexes; 400 μM compound)	IC50 [2]	IC50 (MOS1-ITR complexes)	times more active against strand transfer activity than 3′ maturation (HIV-1 integrase)	IC50 (HIV-1 integrase; read-out: IC50 3′ maturation)	IC50 (HIV-1 integrase; read-out: IC50 strand transfer activity)	inhibition of MOS1-ITR complexes (MOS1-ITR complexes; 400 μM compound)	excision of the transposon ([2]; highest concentration of the drug (1 mM))
COc1ccc(C(c2c(O)c3ccccc3oc2=O)c2c(O)c3ccccc3oc2=O)cc1CSc1ccccn1 [Compound 7, reference compound]	4.85 × 10^−6	82.5	−	completely destabilized							
O=C(O)C(Cc1ccccc1)N1C(=O)C(=CC=Cc2ccccc2)SC1=S (stereo not drawn) [Compound 10, reference compound]	2.76 × 10^−6	145	−	completely destabilized	35 µM						
O=C/C=C/c1ccc(C2=C(c3ccc(/C=C/C=O)o3)C(=O)N(Cc3ccccc3)C2=O)o1 [Compound 4]	5.37 × 10^−6	75	−	completely destabilized		12 µM	10 times	70 µM	7 µM		
CCOC(=O)C(Cc1ccccc1)N1C(=O)C(c2ccc(C(=O)O)o2)=C(c2ccc(C(=O)O)o2)C1=O (stereo not drawn) [Compound 3]	4.01 × 10^−6	100	−	completely destabilized		30 µM					
O=C(O)c1ccc(C2=C(c3ccc(C(=O)O)o3)C(=O)N(c3ccc(O)cc3)C2=O)o1 [Compound 2]	1.2 × 10^−6	33	−	completely destabilized		15 µM					
O=C(Nc1ccccc1C(=O)O)c1cccc(NC(=O)C(c2ccccc2)c2ccccc2)c1 [Compound 9, reference compound]	1.64 × 10^−5	25			150 µM					90%	completely suppressed
COc1cccc(OCCOc2cccc(CC3SC(=S)NC3=O)c2)c1 (stereo not drawn) [Compound 8, reference compound]	5.04 × 10^−6	79	−	completely destabilized							
